Data reported in patent publication US20050107289A1, “Anti-microbial peptides and compositions” (priority 2001, published 2005).
Where a name gives a salt, the structure may show the parent alone. Read-outs that look alike come from different tables or passages of the source. Non-standard residues stand in square brackets, D forms with d. Residues, ends and D or L forms follow the SMILES beside them. NMeL = CN[C@@H](CC(C)C)C(=O)O

Legend:
[1] = system: Streptococcus pneumoniae (ATCC 6301); format: cell-based
Outline: (§1)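 Broth microdilution (macrodilution in some cases) per NCCLS M7-A4; peptides 2-fold serially diluted in 5% DMSO/9% sucrose, ~400-2 μg/ml before dilution into broth; inoculum ~2.5×10^5 cfu/ml from overnight culture diluted 4000×.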

[2] = system: Bacillus cereus ATCC 11778; format: cell-based
Outline: as §1

[3] = system: murine red blood cells; assay: Red blood cell hemolysis; format: cell-based, mouse; details: for Hemolysis HD50: red cells of murine
Outline: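 Hemolysis read as A560 of supernatant, scaled between saline (0%) and 1% Triton X-100 (100%) controls; peptides were serially diluted onto 5% murine red cells in saline plus 10% FBS and incubated 30 min at 37° C.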

[4] = system: S. aureus MRSA (ATCC 33591); assay: Mouse peritonitis model, MRSA protection; format: in vivo, mice; set-up: PD50 MRSA: unit not given here
Method: Bacteria were prepared for in vivo using procedures similar to those as previously described. […] S. aureus MRSA bacteria (ATCC 33591) were grown at 37° C. in 5 mL of Antibiotic Medium-3 (AM-3, Difco Laboratories) with agitation for 12 hours to a stationary phase. Cells were collected by centrifugation, washed twice with saline solution and resuspended in about 10 mL of saline to an O.D.650 of 1.2. This suspension was diluted ten times in a sterilized 5% mucin (Difco) in saline to a concentration of 2-4×10^7 cfu/ml (actual inoculum size was verified by colony counts on agar plates).
(§2) Peptides of the invention were tested in mice to ascertain whether they would protect the mice against bacterial infection using procedures similar to those described in N. Frimodt-Moller et al., The Mouse Peritonitis/Sepsis Model, in Zak et al. (eds.) HANDBOOK OF ANIMAL MODELS OF INFECTION 127-37 (Academic Press 1999).
(§3) Male Balb-C mice (6 weeks old, approximately 20 g) were used in the study. Staphylococcus aureus MRSA bacteria (ATCC 33591) were grown at 37° C. with agitation for 12 hours to a stationary phase. Cells were collected by centrifugation, washed twice with saline and resuspended to an O.D.650 of 1.4. This suspension was diluted ten times with saline and resuspended to a concentration of 3-5×10^7 cfu/ml. For each peptide five groups of eight mice per group were infected I.P. with 0.5 ml of the above Staphylococcus aureus MRSA preparation (lethal dose). Forty-five minutes to an hour after infection, each group was treated with a different dose of peptide and a control group received vehicle only. Mice were monitored for fourteen days; death was defined as the end point. Median protecting doses (PD50) were calculated following the Reed and Muench method. […] For IV and SQ models peptide was administered immediately after IP infection.

[5] = system: S. aureus (MRSA) ATCC 33591; format: cell-based, Staphylococcus aureus; details: for MRSA (in vitro activity): Table 9
Outline: as §1

[6] = system: vancomycin-resistant Enterococus faecalis (VRE)(ATCC 51575); format: cell-based, Enterococcus faecalis; set-up: key to VRE (in vitro activity): peptide concentration in μg/ml (broth dilution assay); details: for VRE MIC: ATCC 51575; for VRE (in vitro activity): Table 9
Outline: as §1

[7] = system: vancomycin resistant E. faecium (VREF)(ATCC 51575); assay: Mouse peritonitis model, VREF protection; format: in vivo, mice; set-up: PD50 VREF: unit not given here
Method: Vancomycin resistant Enterococcus faecium (VREF) bacteria (ATCC 51575) were grown at 37° C. in 60 mL of Brain Heart Infusion medium (BHI, Difco Laboratories) with agitation for 16 hours to a stationary phase. Cells were collected by centrifugation, washed twice with saline solution and resuspended in 6 mL of saline to a theoretical O.D.650 of 9-10 (determined by taking OD.650 of 10-20 fold diluted samples and correlating it to the original concentration). This suspension was diluted 15 times in a sterilized 5% mucin (Difco) in saline to a concentration of 5-7×10^8 cfu/ml (actual inoculum size was verified by colony counts on agar plates).
as §2, §3

[8] = system: E. coli JM109(DE3); format: cell-based, Escherichia coli; details: JM109
Outline: as §1

[9] = system: H. influenzae ATCC 49247; assay: microbe, parasite or virus in culture; format: cell-based, Hemophilus influenzae; details: ATCC 49247
Method: (§4) The antimicrobial activity of the peptides was determined using a broth dilution assay essentially as descried in the guidelines of the National Committee for […] (NCCLS) [National Committee for Clinical Laboratory Standards. Methods for dilution antimicrobial susceptibility tests for bacteria that grow aerobically. Fourth edition. Approved Standard (1997). Document M7-A4. […] The microdilution method has the advantages of requiring less amount of peptide for each assay and the possibility of multiple simultaneous inoculations and was used in most studies. Several of the strains of bacteria tested are further described in Table 3.
(§5) Preparation of peptide solutions. Stock peptide solutions were prepared in 5% DMSO in aq. sucrose (9%). Determination of peptide concentrations was done by quantitative HPLC analysis using known concentrations of internal standards and/or by measuring UV absorption of tryptophane-containing peptide solutions in H2O (λ=280 εTrp: 5690). Serial 2-fold dilutions were made in the above DMSO/aq. sucrose (9%) mixture with concentrations ranging approximately 400-2 μg/ml and aliquots were dispensed in test tubes (100 μl) for the macrodilution test or in microtiter plates (20 μl) for the microdilution assays.
(§6) Inoculum preparation. Overnight cultures of different microorganisms grown in suitable media were diluted 4000 times to an approximate inoculum size of 2.5×10^5 cfu/ml.
(§7) Macrodilution method. Macrodilution methods were performed using procedures similar to those described in the National Committee for Clinical Laboratory Standards. Methods for dilution antimicrobial susceptibility tests for bacteria that grow aerobically. Fourth edition. Approved Standard (1997). Document M7-A4. (NCCLS,Villanova, Pa., 1997). Two ml aliquots of the above inoculum were dispensed to test tubes containing different peptide solutions.
(§8) Microdilution method. Microdilution methods were performed using procedures similar to those described in the National Committee for Clinical Laboratory Standards. Methods for dilution antimicrobial susceptibility tests for bacteria that grow aerobically. Fourth edition. Approved Standard (1997). Document M7-A4.

[10] = system: S. aureus ATCC 33592; assay: microbe, parasite or virus in culture; format: cell-based, Staphylococcus aureus; details: ATCC 33592
Method: as §4, §5, §6, §7, §8

[11] = system: E. faecalis ATCC 51299; assay: microbe, parasite or virus in culture; format: cell-based, Enterococcus faecalis; details: ATCC 51299
Method: as §4, §5, §6, §7, §8

[12] = system: E. faecium SP180; assay: microbe, parasite or virus in culture; format: cell-based, Enterococcus faecium; details: SP180
Method: as §4, §5, §6, §7, §8

[13] = system: E. coli (K12); assay: microbe, parasite or virus in culture; format: cell-based, Escherichia coli; details: K12
Method: as §4, §5, §6, §7, §8

[14] = Single channel conductance in planar lipid membranes
Method: The ion transport properties of tetrapeptides cyclo[(β-Trp)4] and cyclo[(β-Trp-β-Leu)2], synthesized via established protocols, were studied in liposome-based assays and by single channel conductance measurements in planar lipid membranes. The observed conductance in 500 mM KCl with peptide concentrations of about […] in the subphase is 56 pS, corresponding to the rates of channel mediated K^+ transport of 1.9×10^7 ions s^−1 for both tetrapeptides.

[15] = Table 12, male Balb-C mice, IP infection, IP peptide
[16] = single bolus IP dose of appropriate amount, 45-60 min after infection
[17] = media b: cation adjusted Meuller Hinton broth (MHBII)
[18] = media c: Brain Heart Infusion (BHI)

Compound: CC(C)C[C@H]1NC(=O)[C@H](Cc2c[nH]c3ccccc23)NC(=O)[C@@H](CCCCN)NC(=O)[C@H](CCCCN)NC(=O)[C@@H](CCCCN)NC(=O)[C@H](Cc2c[nH]c3ccccc23)NC(=O)[C@@H](CC(C)C)NC(=O)[C@H](Cc2c[nH]c3ccccc23)NC1=O [SEQ ID NO:17, cyclo[-(D-Lys-Lys-D-Lys-(Trp-D-Leu)2-Trp-]] (cyclo([dK]K[dK]W[dL]W[dL]W))
- S. pneum. MIC [1]: 10 µg/mL
- B. cerius MIC [2]: 5 µg/mL
- RBC Hemolysis (HD50) [3]: 45
- PD50 S. aureus MRSA infection [4]: 7 mg/kg
- PD50 protective dose where 50% of animals survive ([4]; FIG. 6, mice challenged with lethal doses of MRSA): 6 ± 2 mg/kg
- PD50 MRSA [4, 15]: 7
- protection of mice from MRSA infection [4, 16]: completely protect
- MRSA MIC ([5]; ATCC 33591): 10 µg/mL
- S. aureus (MRSA) MIC ([5]; ATCC 33591): 8 µg/mL
- MRSA (in vitro activity) ([5]; media a: anti-microbial media-3 (AM-3)): 10
- VRE MIC [6]: 40 µg/mL
- VRE (in vitro activity) ([6]; media a: AM-3): 40
- PD50 E. faecium VREF infection [7]: 13 mg/kg
- PD50 VREF [7, 15]: 13
- protection of mice from VREF infection [7, 16]: completely protect

Compound: CC(C)C[C@@H](N)C(=O)N[C@@H](Cc1c[nH]c2ccccc12)C(=O)N[C@H](CCCNC(=N)N)C(=O)N[C@@H](CCCNC(=N)N)C(=O)N[C@H](CCCCN)C(=O)N[C@@H](Cc1c[nH]c2ccccc12)C(=O)N[C@H](CC(C)C)C(=O)N[C@@H](Cc1c[nH]c2ccccc12)C(N)=O [SEQ ID NO:137, H-LWRRKWLW-NH2] (H-[dL]W[dR]R[dK]W[dL]W-NH2)
- S. pneum. MIC [1]: 20 µg/mL
- B. cerius MIC [2]: 9 µg/mL
- Hemolysis HD50 [3]: 100 µg/mL
- MRSA MIC ([5]; ATCC 33591): 5 µg/mL
- VRE MIC [6]: 40 µg/mL
- E. coli MIC [8]: 4 µg/mL

Compound: CC(=O)N[C@H](CC(C)C)C(=O)N[C@@H](Cc1c[nH]c2ccccc12)C(=O)N[C@H](CCCNC(=N)N)C(=O)N[C@@H](CCCNC(=N)N)C(=O)N[C@H](CCCCN)C(=O)N[C@@H](Cc1c[nH]c2ccccc12)C(=O)N[C@H](CC(C)C)C(=O)N[C@@H](Cc1c[nH]c2ccccc12)C(N)=O [SEQ ID NO:138, Ac-LWRRKWLW-NH2] (Ac-[dL]W[dR]R[dK]W[dL]W-NH2)
- S. pneum. MIC [1]: 20 µg/mL
- B. cerius MIC [2]: 20 µg/mL
- Hemolysis HD50 [3]: 100 µg/mL
- MRSA MIC ([5]; ATCC 33591): 15 µg/mL
- VRE MIC [6]: 100 µg/mL
- E. coli MIC [8]: 7 µg/mL

Compound: CC(C)C[C@H]1C(=O)N[C@H](Cc2c[nH]c3ccccc23)C(=O)N(C)[C@@H](CC(C)C)C(=O)N[C@H](Cc2c[nH]c3ccccc23)C(=O)N[C@@H](CCCNC(=N)N)C(=O)N[C@H](CCCNC(=N)N)C(=O)N[C@@H](CCCCN)C(=O)N[C@H](Cc2c[nH]c3ccccc23)C(=O)N1C [SEQ ID NO:139, c[RRKW^MeLW^MeLW]] (cyclo(R[dR]K[dW][NMeL][dW][NMeL][dW]))
- S. pneum. MIC [1]: 10 µg/mL
- B. cerius MIC [2]: 5 µg/mL
- Hemolysis HD50 [3]: 100 µg/mL
- MRSA MIC ([5]; ATCC 33591): 5 µg/mL
- VRE MIC [6]: 30 µg/mL
- E. coli MIC [8]: 5 µg/mL

Compound: CC(C)C[C@H]1NC(=O)[C@H](Cc2c[nH]c3ccccc23)NC(=O)[C@@H](CCCCN)NC(=O)[C@H](CO)NC(=O)[C@@H](CCCCN)NC(=O)[C@H](Cc2c[nH]c3ccccc23)NC(=O)[C@@H](CC(C)C)NC(=O)[C@H](Cc2c[nH]c3ccccc23)NC1=O [[KSKWLWLW]-HCl, D-Lys-Ser-D-Lys-Trp-D-Leu-Trp-D-Leu-Trp] (cyclo([dK]S[dK]W[dL]W[dL]W))
- H. influenzae ATCC 49247 MIC [9]: 32 µg/mL
- S. aureus ATCC 33592 MIC [10]: 4 µg/mL
- E. faecalis ATCC 51299 MIC [11]: 8 µg/mL
- RBC Hemolysis (HD50) [3]: 60
- MRSA (in vitro activity) [5, 17]: 9
- E. faecium SP180 MIC [12]: 4 µg/mL
- VRE (in vitro activity) [6, 18]: 9

Compound: CC(C)C[C@H]1NC(=O)[C@H](Cc2c[nH]c3ccccc23)NC(=O)[C@@H](CCCCN)NC(=O)[C@H](CCCNC(=N)N)NC(=O)[C@@H](CCCNC(=N)N)NC(=O)[C@H](Cc2c[nH]c3ccccc23)NC(=O)[C@@H](CC(C)C)NC(=O)[C@H](Cc2c[nH]c3ccccc23)NC1=O [[RRKWLWLW]-HCl, cyclo-(D-Arg-Arg-D-Lys-Trp-D-Leu-Trp-D-Leu-Trp)] (cyclo([dR]R[dK]W[dL]W[dL]W))
- H. influenzae ATCC 49247 MIC [9]: 32 to 64 µg/mL
- S. aureus ATCC 33592 MIC [10]: 8 µg/mL
- E. faecalis ATCC 51299 MIC [11]: 8 to 16 µg/mL
- RBC Hemolysis (HD50) [3]: 70
- E. coli (K12) MIC [13]: 32 µg/mL
- MRSA (in vitro activity) [5, 17]: 9
- E. faecium SP180 MIC [12]: 4 µg/mL
- VRE (in vitro activity) [6, 18]: 9

Compound: cyclo[(β-Trp)4]
- rate of channel mediated K+ transport ([14]; 500 mM KCl): 1.9×10^7 ions s^−1
- observed conductance ([14]; 500 mM KCl, peptide about 30 mM in the subphase): 56 pS
- transport speed relative to gramicidin A ([14]; similar conditions): more than twice
